Test results published in patent US20160138077A1, “MONITORING AND ASSESSING DEACETYLASE ENZYME ACTIVITY” (THE GENERAL HOSPITAL CORPORATION, priority 2013, published 2016).

Tested on: HeLa cells
Assay: Determination of HDAC activity in HeLa cells by LC-MS
Type: cell-based
Conditions: live HeLa cells, 5 μM, over 24 h
Procedure: HeLa cell culture and treatment with HP-1 and HP-2. HeLa cells (ATCC) were grown as a monolayer in Eagles Minimum Essential Medium (EMEM, GIBCO, BRL, Gaithersburg, Md.) with 10% Fetal Bovine Serum (FBS, GIBCO, BRL, Gaithersburg, Md.) and 1% penicillin/streptomycin ([…]). All cell culture dishes were maintained in a humidified atmosphere with 5% CO2 at 37° C.
Determination of HDAC activity in HeLa cells by LC-MS. HDAC activity in HeLa cells was analyzed by performing an LCMS assay. Solutions of HP-1 and HP-2 (200 mM each) were prepared in DMSO and diluted in HDAC buffer to a final concentration of 100 μM. […] Cells were scraped off of the flask, lysed in milipore water (90 μL) using a mechanical homogenizer, centrifuged (at 14,000×g for 2 min) and 20 μL aliquot of supernatant from each sample was analyzed by LCMS. […] The peak area for each detected compound was measured to determine the % conversion. For HP-1, the corresponding (M+H)^+ ion was detected. […] The peak area for each detected compound was measured to determine the % conversion of each probe. […]
Determination of HDAC activity in HeLa cells by LC-MS. […] Cells were scraped off of the flask, lysed in Millipore water using a mechanical homogenizer, and supernatant of the lysed samples were analyzed by LC-MS. […] The peak area for each detected compound was measured to determine the % conversion versus time (full experimental details in Example 1).

CC(=O)NC=CCCCCNC(=O)CCCCCNc1ccc([N+](=O)[O-])c2nonc12 [HP-1]
HP-1 cleaved (absence of SAHA, LCMS of supernatants and lysates): 80%
Cleavage of HP-1 (addition of SAHA (10 μM)): 20%
